The record followed here is patent US20240217988A1, “ESTROGEN RECEPTOR ANTAGONIST” (Shenzhen Forward Pharmaceuticals Co., Limited, priority 2021, published 2024).

Data set [1] deals with GST-ERα-LBD (Homo sapiens (Human), UniProt P03372). As to the kind of experiment: ERα TR-FRET test. The format is biochemical. The settings on record: estradiol final concentration 1.5 nM, biotin-SRC2. How it is done: 1× Tris-HCl (Sigma, PHG0002) protein buffer was prepared and mixed for later use. The compound to be detected was prepared into a stock solution with a concentration of 2 mM and then subjected to serial 3-fold gradient dilution, resulting in a total of 10 concentrations.
Preparation of 1× protein mixed solution: firstly, 2× GST-ERα-LBD (Invitrogen, A15677)/MAb anti-GST-Eu (Cisbio, 61GSTKLA) mixed solution was prepared according to the following table.
2× biotin-SRC2/streptavidin-XL665 (Cisbio, 610SAXLA) mixed solution was prepared.
The above 2× GST-NR-LBD/ MAb anti-GST-Eu solution and 2× biotin-SRC2/streptavidin-XL665 solution were uniformly mixed at a volume ratio of 1:1; and the 1× protein mixed solution was added to each well of a 384-well plate, with 20 μL being added per well, the 384-well plate was put into a centrifuge and centrifuged at room temperature at 1000 rpm for 10 seconds, and it was taken out, then left to stand at room temperature for 3 h, and then read by EnVision multifunctional microplate reader.
The inhibition rate was calculated according to the following formula: […]
The data were imported into Graphpad Prism, and Log(agonist) vs. response-variable slope was used for curve fitting.
Y=Bottom+(Top−Bottom)/(1+10^((LogEC50−X)*HillSlope)) Fitting formula
On the technique in general: TR-FRET usually uses a lanthanide donor and a delayed reading to cut background.

Data set [2] relates to Human breast cancer cells MCF-7. As to the kind of experiment: MCF-7 cell proliferation experiment. The format is cell-based. The following applies: Homo sapiens, MCF7; MCF-7 cells, 72 hours, Cell Titer-Glo. How it is done: Test Example 2: MCF-7 Cell Proliferation Experiment
Human breast cancer cells MCF-7 (HTB-22, purchased from ATCC) were inoculated into a 96-well plate. The culture medium was an MEM (Hyclone, SH30024.01B) culture medium containing 10% of FBS (Gibco, 10099-141), 1% of pyruvic acid (Sigma, S8636), and 1% of nonessential amino acid (Sigma, M7145), and the inoculation density was 4,000 cells/well. The cells were cultured at 37° C., 5% CO2. The compound was prepared into a 20 mM stock solution, which was subjected to gradient dilution to a final concentration of […] with 100% DMSO (Sigma, D2650) and then diluted 20 folds with a culture medium containing 2% of FBS. After 24 hours of culture, the culture medium was removed, 90 μL of a culture medium containing 2% of FBS and 10 μL of drug were added to each well, while 10 μL of DMSO was added to the control group, and they were gently shaken and mixed. The blank group only contained 100 μL of 2% FBS culture medium. They were placed in an incubator and cultured at 37° C., 5% CO2. After 72 hours, 50 μL of mixed Cell Titer-Glo (Promega, G7571) was added. They were shaken and mixed uniformly, and placed at room temperature for 10 min. The chemiluminescence signal value was determined. The negative control was 0.5% DMSO well.
In general terms: In ATP-based viability assays light output follows the ATP content of the culture.

Data set [3] concerns the target ERα (Homo sapiens (Human), UniProt P03372). As to the kind of experiment: Degradation effect of compound on ERα (ERα DuoSet IC ELISA in MCF-7 cells). The format is cell-based. The settings on record: 24 h with compound, read-out: IC50 value of ERα degradation by compound. How it is done: In this test example, ERα DuoSet IC ELISA Kit (R&D, DYC5715) was used to detect the degradation effect of the compound on ERα. On the first day of the experiment, human breast cancer cells MCF-7 (the source was as above) were inoculated into a 24-well plate. The culture medium was an MEM culture medium containing 10% of activated-carbon-treated FBS (Tocyto, UT61204), 1% of pyruvic acid and 1% of nonessential amino acid. The inoculation density was 150,000 cells/well. The cells were cultured at 37° C., 5% CO2 for 24 h.
On the second day of the experiment, the compound to be tested was diluted in gradient and added to a 24-well plate containing cells. The cells were cultured for 24 h at 37° C., 5% CO2. ERα capture antibody was diluted to 1 μg/ml with PBS (Corning, 21-040-CVR) and added to a 96-well plate at 100 μL/well, and the plate was […] coated overnight at room temperature.
On the third day of the experiment, the coated 96-well plate was washed three times with PBS, 300 μL of a blocking solution (R&D, DY995) was added to each well, and the plate was blocked at room temperature for 1 h. The 24-well plate was washed once with PBS, and the residual liquid was sucked off. […] The diluted cell lysate was taken and added to the blocked 96-well plate, with 100 μL per well, and incubated at room temperature for 2 h. The plate was washed three times with a washing solution (R&D, WA126), and a primary antibody was then added. After incubation for 1 h, the 96-well plate was washed four times, a secondary antibody was added, and incubation was carried out at room temperature in the dark for 30 min. The plate was washed four times with the washing solution, and TMB (R&D, DY999) was added. After 15 minutes of development, the reaction was terminated with a stop solution (R&D, DY994), and the light absorption at 450 nm was read.
(ELISA stands for enzyme-linked immunosorbent assay.)

Data set [4] in a line: Stability in human liver microsomes in vitro. The settings on record: human liver microsomes; for half-life: microsome protein 1 mg/mL working solution, NADPH; for CLint scaled: scaled to liver; for microsomal CLint: read-out: CLint(mic). The format is in vitro ADME. How it is done:
Test Example 4: Test for Stability in Human Liver Microsomes In Vitro Eight 96-well incubation plates were prepared and named [NT], Blank60 and NCF60, respectively. […] No test compound or control compound was added to Blank60 plate, and samples were taken after incubation for 60 min. NCF60 plate was incubated with a potassium phosphate buffer instead of an NADPH regeneration system solution (Sigma, N0505) for 60 min. […] Only the microsome working solution was added to Blank60 plate, and the incubation plates Blank60, T5, T15, T30, T45 and T60 except T0 and NCF60 were then placed in a water bath at 37° C. and pre-incubated for about 10 min. To the samples of T0 plate, 600 μL of a stop solution (acetonitrile:methanol (95:5, v/v) solution containing 100 ng/mL of tolbutamide (Sigma, T0891)) was added first, and the NADPH regeneration system working solution was then added. 98 μL of a potassium phosphate buffer was added to each well of NCF60 plate and incubated for 60 min. After the pre-incubation in the incubation plates Blank60, T5, T15, T30, T45 and T60 was completed, 98 μL of the NADPH regeneration system working solution was added to each sample well to initiate the reaction. After an appropriate incubation time (such as 5, 15, 30, 45 and 60 min), 600 μL of a stop solution was added to each sample well and the control sample well in Blank60, […] the reaction. All the sample plates were shaken uniformly and centrifuged at 3220×g for 20 min. 200 μL of test sample supernatant was separately taken and diluted in 200 μL of an aqueous solution containing 0.3% formic acid for LC-MS/MS analysis, and 100 μL of control sample supernatant was taken and diluted in 300 μL of pure water for LC-MS/MS analysis. Calculation was performed according to the following formula: [formula] [formula] [formula] [formula] [formula] [formula]

Sequence of GST-ERα-LBD (P03372 311-547): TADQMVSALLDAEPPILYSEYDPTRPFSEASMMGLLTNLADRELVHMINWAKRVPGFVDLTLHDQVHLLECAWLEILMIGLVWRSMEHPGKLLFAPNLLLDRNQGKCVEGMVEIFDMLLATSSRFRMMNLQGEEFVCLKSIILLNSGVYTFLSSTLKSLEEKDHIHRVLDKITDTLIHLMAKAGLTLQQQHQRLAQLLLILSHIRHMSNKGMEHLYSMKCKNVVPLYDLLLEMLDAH
Sequence of ERα (P03372 whole entry): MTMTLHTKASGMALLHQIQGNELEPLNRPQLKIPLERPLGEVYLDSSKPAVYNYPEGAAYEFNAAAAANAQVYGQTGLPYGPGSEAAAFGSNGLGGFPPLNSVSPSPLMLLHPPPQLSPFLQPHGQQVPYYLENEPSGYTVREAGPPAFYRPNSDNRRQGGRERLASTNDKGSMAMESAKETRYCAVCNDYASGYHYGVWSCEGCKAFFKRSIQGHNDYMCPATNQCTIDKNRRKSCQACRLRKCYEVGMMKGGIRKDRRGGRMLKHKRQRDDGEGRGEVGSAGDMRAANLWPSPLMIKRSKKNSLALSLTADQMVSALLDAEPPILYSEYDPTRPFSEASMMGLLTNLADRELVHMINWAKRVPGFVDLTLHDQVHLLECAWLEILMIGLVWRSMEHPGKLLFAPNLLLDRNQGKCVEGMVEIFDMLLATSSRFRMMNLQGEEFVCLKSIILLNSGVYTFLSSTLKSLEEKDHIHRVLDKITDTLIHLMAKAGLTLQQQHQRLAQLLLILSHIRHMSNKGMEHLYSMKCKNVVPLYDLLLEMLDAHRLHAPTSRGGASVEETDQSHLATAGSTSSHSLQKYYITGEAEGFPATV

Consider `C[C@@H]1Cc2c(ccc3[nH]c(=O)oc23)[C@@H](c2c(F)cc(NC3CN(CCCF)C3)cc2F)N1CC(F)(F)F` [Example 10, (6S,8R)-6-(2,6-difluoro-4-((1-(3-fluoropropyl)azetidin-3-yl)amino)phenyl)-8-methyl-7-(2,2,2-trifluoroethyl)-6,7,8,9-tetrahydrooxazolo[5,4-f]isoquinolin-2(3H)-one], for which it took 7.8 nM to reach half-maximal inhibition in data set [1] (IC50). Inhibition in data set [2] was half-maximal at 0.2 nM (IC50). In addition, the DC50 in data set [3] was found to be 0.41 nM. In data set [4], the half-life came to 1.94 h, the CLint scaled stood at 8.1 mL/min/kg and the microsomal CLint worked out at 9 µL/min/mg.
In data set [1], `COc1cc(NC2CN(CCCF)C2)ccc1[C@@H]1c2ccc3[nH]c(=O)oc3c2C[C@@H](C)N1CC1(F)CC1` [Example 31] yielded an IC50 of 45.6 nM. This molecule displayed an IC50 in data set [2] of 0.85 nM. For the same molecule, in data set [3], the DC50 came to 0.75 nM. Further, in data set [4], the half-life came out at 1.39 h, the CLint scaled was 18.4 mL/min/kg and the microsomal CLint was 17.5 µL/min/mg.
Consider `COc1cc(NC2CN(CCCF)C2)ccc1[C@@H]1c2ccc3[nH]c(=O)oc3c2C[C@@H](C)N1CC(C)(F)F` [Example 32], for which 14.7 nM corresponded to half-maximal inhibition in data set [1] (IC50). This molecule yielded a half-inhibitory concentration (IC50) in data set [2] of 0.39 nM. Besides, the DC50 in data set [3] amounted to 0.42 nM. In addition, in data set [4], the half-life was found to be 1.71 h, the CLint scaled came out at 9 mL/min/kg and the microsomal CLint came out at 9.8 µL/min/mg.
In data set [1], `COc1cc(NC2CN(CCCF)C2)ccc1[C@@H]1c2ccc3[nH]c(=O)oc3c2C[C@@H](C)N1CC(F)(F)F` [Example 25, (6S,8R)-6-(4-((1-(3-fluoropropyl)azetidin-3-yl)amino)-2-methoxyphenyl)-8-methyl-7-(2,2,2-trifluoroethyl)-6,7,8,9-6,7,8,9-tetrahydrooxazolo[5,4-f]isoquinolin-2(3H)-one] yielded an IC50 of 11.4 nM. In data set [2], this molecule came in with a 50% inhibitory concentration (IC50) of 0.24 nM. Besides, the DC50 in data set [3] worked out at 0.34 nM. Further, in data set [4], the half-life amounted to 1.76 h, the CLint scaled came out at 8.4 mL/min/kg and the microsomal CLint stood at 9.6 µL/min/mg.
In the case of `C[C@@H]1Cc2c(ccc3[nH]c(=O)oc23)[C@@H](c2c(F)cc(OC3CN(CCCF)C3)cc2F)N1CC(F)(F)F` [Example 12, (6S,8R)-6-(2,6-difluoro-4-((1-(3-fluoropropyl)azetidin-3-yl)oxy)phenyl)-8-methyl-7-(2,2,2-trifluoroethyl)-6,7,8,9-tetrahydrooxazolo[5,4-f]isoquinolin-2(3H)-one], in data set [1], the IC50 was determined as 15.6 nM. For the same molecule, half-maximal inhibition in data set [2] (IC50) required 0.49 nM. In data set [3], the DC50 came to 0.57 nM. For the same molecule, in data set [4], the half-life amounted to 1.73 h, the CLint scaled is 8.9 mL/min/kg and the microsomal CLint was determined as 9.8 µL/min/mg.
Regarding `C[C@@H]1Cc2c(ccc3[nH]c(=O)oc23)[C@@H](c2ccc(NC3CN(CCCF)C3)cn2)N1CC(F)(F)F` [Example 26, (6S,8R)-6-(5-((1-(3-fluoropropane)azetidin-3-yl)amino)pyridin-2-yl)-8-methyl-7-(2,2,2-trifluoroethyl)-6,7,8,9-tetrahydroxazolo[5,4-f]isoquinolin-2(3H)-one], the IC50 in data set [1] stood at 58.4 nM; in data set [2] it was 0.55 nM.
The molecule `COc1cc(NC2CN(CCCF)C2)cc(Cl)c1[C@@H]1c2ccc3[nH]c(=O)oc3c2C[C@@H](C)N1CC(F)(F)F` [Example 33, (6S,8R)-6-(4-((1-(3-fluoropropyl)azetidin-3-yl)amino)-2-methoxy-6-chloro-phenyl)-8-methyl-7-(2,2,2-trifluoroethyl)-6,7,8,9-6,7,8,9-tetrahydrooxazolo[5,4-f]isoquinolin-2(3H)-one] gave an IC50 in data set [1] of 11.8 nM. This molecule yielded an IC50 in data set [2] of 0.39 nM. In data set [3], the DC50 stood at 0.35 nM. For the same molecule, in data set [4], the half-life was 1.85 h, the CLint scaled worked out at 7.9 mL/min/kg and the microsomal CLint was found to be 8.3 µL/min/mg.
In the case of `C[C@@H]1Cc2c(ccc3[nH]c(=O)oc23)[C@@H](c2c(F)cc(NC3CN(CCCF)C3)cc2F)N1CC(F)(F)CO` [Example 9, (6S,8R)-7-(2,2-difluoro-3-hydroxypropyl)-6-(2,6-difluoro-4-((1-(3-fluoropropyl)azetidin-3-yl)amino)phenyl)-8-methyl-6,7,8,9-tetrahydrooxazolo[5,4-f]isoquinolin-2(3H)-one], the IC50 in data set [1] was found to be 21.6 nM; in data set [2], 0.19 nM. Also, the DC50 in data set [3] was 0.39 nM.
Turning to `CC(C)CN1[C@H](c2c(F)cc(OCCN3CC(CF)C3)cc2F)c2ccc3[nH]c(=O)oc3c2C[C@H]1C` [Example 1], the IC50 in data set [1] was 9 nM. Further, in data set [2], the IC50 is 0.39 nM. Further, the DC50 in data set [3] was 0.62 nM. Also, in data set [4], the half-life stood at 1.53 h, the CLint scaled was 13.6 mL/min/kg and the microsomal CLint was found to be 15.1 µL/min/mg.
With `C[C@@H]1Cc2c(ccc3[nH]c(=O)oc23)[C@@H](c2c(F)cc(N3CC4(CN(CCF)C4)C3)cc2F)N1CC(F)(F)CO` [Example 14, (6S,8R)-7-(2,2-difluoro-3-hydroxypropyl)-6-(2,6-difluoro-4-(6-(2-fluoroethyl)-2,6-diazspiro[3.3]hept-2-yl)phenyl)-8-methyl-6,7,8,9-tetrahydrooxazolo[5,4-f]isoquinolin-2(3H)-one], the IC50 in data set [1] is 40.3 nM. Moreover, inhibition in data set [2] was half-maximal at 0.44 nM (IC50). Moreover, in data set [4], the half-life was 1.82 h, the intrinsic metabolic clearance (CLint scaled) stood at 8.7 mL/min/kg and the microsomal CLint amounted to 9.5 µL/min/mg.

For orientation: IC50 means the point on the concentration scale where inhibition reaches its midpoint. Higher therefore signals lower potency. The term half-life denotes the time needed for the level to fall by half in the phase considered. The low end stands for fast loss, the high end for slow loss. One may read the CLint scaled as the rate of metabolic loss divided by the concentration. Read a high CLint scaled as faster metabolism.
